Literature values in patent US8372797B2, “Treatment of erectile dysfunction by stem cell therapy” (Creative Medical Health, Inc., priority 2006, dated 2013).

How the values were obtained:
[1] = system: hypercholesterolemic rabbits; conditions: systemic administration
[2] = system: diabetic rats; conditions: intracavernous, gelatin microbeads
[3] = system: hypercholesterolemic rabbits; conditions: two 2.5 microgram doses separated by a 3-week interval into corporal tissue
[4] = system: model of rat diabetes associated ED; conditions: exogenous administration

| Substance | histological changes in the corpus cavernosum [1] | erectile function [2] | corporal relaxation and ability to generate NO [3] | erectile function [4] |
| --- | --- | --- | --- | --- |
| bFGF: basic fibroblast growth factor, a known inducer of angiogenesis | favorable histological changes | protection of erectile function from diabetes mediated onset | increase corporal relaxation in response to chemical stimuli | – |
| superoxide dismutase | – | – | – | increase erectile function |
